For 10 compounds, Ki and inhibition results are on record in PMC3481598, “Hierarchical virtual screening for the discovery of new molecular scaffolds in antibacterial hit identification” (Journal of the Royal Society Interface, 2012).

pKi: −log10 of the molar value. Like-named read-outs stand apart in the source and are kept apart here.

The target in assay [1] is T1, type II dehydroquinase from Streptomyces coelicolor (Streptomyces coelicolor, UniProt P15474). Put plainly: S. coelicolor DHQase enzyme inhibition in vitro. The assay is classed as biochemical. An excerpt: (§1) The next step was to purchase the compounds highlighted by these protocols to test them in vitro against M. tuberculosis DHQase and S. coelicolor DHQase. With the modest budget assigned to this proof of concept (£5000), we could purchase 148 compounds (full details on this process can be found in electronic supplementary material, Materials and methods). Tables 1 and 2 show the performance of each virtual screening protocol against each target (all IC50 measurements are included in the electronic supplementary material). […]. […].
T1 sequence (P15474 whole entry): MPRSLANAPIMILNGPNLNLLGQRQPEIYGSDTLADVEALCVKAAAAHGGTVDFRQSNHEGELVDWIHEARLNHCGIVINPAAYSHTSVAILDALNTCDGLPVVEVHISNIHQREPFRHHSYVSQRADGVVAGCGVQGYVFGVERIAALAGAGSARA
(§2) In order to assess the overall hit rate and potency of these inhibitors, we calculated their inhibition constant (Ki) as explained in electronic supplementary material, Materials and methods (see table 3 for a summary). This is necessary to have a more accurate comparison with hit rates in the literature and with the potency of previously known inhibitors. […]. a total of 40 inhibitors) being noticeably higher than that for M. tuberculosis DHQase (23.6%; 35 inhibitors). […]. This difference might be due to the fact that our protocols are primarily exploiting crystal structures for S. coelicolor DHQase. […].

Assay [2] has as its target T2, type II dehydroquinase from Mycobacterium tuberculosis (Mycobacterium tuberculosis, UniProt P9WPX7). Put plainly: M. tuberculosis DHQase enzyme inhibition in vitro. The assay is classed as biochemical. The following applies: Ki calculated from measured IC50, read-out: Ki (Mtb; μM).
Text: as §1, §2

Assay [3] addresses T1, type II dehydroquinase from Streptomyces coelicolor. As to conditions: cited from earlier work.
Assay [4] deals with T2, type II dehydroquinase from Mycobacterium tuberculosis. As to conditions: search template RP4, known optimized inhibitor; reference not given, probably ref 33; read-out: Ki (Mtb; μM); cited from earlier work.
The target in assay [5] is H. pylori DHQase. More on the design: method as in PMID 16480265. As to conditions: HTS hit; read-out: Ki against H. pylori DHQase; cited from earlier work.

T2 sequence (P9WPX7 whole entry): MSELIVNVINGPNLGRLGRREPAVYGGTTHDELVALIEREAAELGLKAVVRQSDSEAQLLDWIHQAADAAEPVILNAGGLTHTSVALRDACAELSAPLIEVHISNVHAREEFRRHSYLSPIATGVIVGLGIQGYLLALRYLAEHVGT

One may read the pKi as −log10 of the Ki, conventionally taken in molar units. Usually Ki stands for the dissociation constant of the complex between target and ligand, obtained from inhibition or displacement. As to `CC(C)N(C(=O)COC(=O)c1ccc(N)c([N+](=O)[O-])c1)C(C)C` [ZINC05657290], the pKi in assay [1] was 3.70. The inhibition constant Ki in assay [2] is 192 µM.

For the compound `CCOC(=O)C1=C(CSc2nc3ccccc3[nH]2)NC(=O)N[C@H]1C` [ZINC06024496], the pKi in assay [1] is 3.76. In addition, the inhibition constant (Ki) in assay [2] is 159 µM.

In assay [1], `O=C(O)[C@H](Cc1ccccc1)N1C(=O)/C(=C/c2cccc3ccccc23)SC1=S` [ZINC00978022] gave a negative-log Ki (pKi) of 5.40.

With `O=C(O)[C@]1(O)C=C(c2cccc(Sc3ccccc3)c2)[C@@H](O)[C@H](O)C1` [RP4], the Ki is 0.07 µM in assay [3] (read-out: Ki (Sc; μM), search template RP4, known optimized inhibitor) and 0.38 µM in assay [4].

In the case of `O=C(O)[C@]1(O)C[C@H](CCCOc2ccccc2)[C@@H](O)[C@H](O)C1` [CA2], in assay [3] (read-out: measured Ki (2BT4 ligand)), the negative logarithm of the Ki (pKi) is 4.48.

As a reminder, the inhibition is the percentage by which the read-out fell short of the control. For the compound `COc1ccc(CC(=O)Nc2cc(C(F)(F)F)ccc2N(C)C)cc1F` [ZINC18086350], the inhibition at 224 µM in assay [1] (read-out: inhibition of S. coelicolor DHQase) worked out at 45%. Also, in assay [2], the inhibition constant Ki was 166 µM.

On to `CC[C@H](C)NC(=O)c1ccccc1NC(=O)Cc1ccccc1` [ZINC10025084], for which the pKi in assay [1] was 3.83. For the same compound, in assay [2], the inhibitory constant (Ki) was 167 µM.

Compound `O=C(Cn1nc2ccccn2c1=O)N(Cc1cccs1)Cc1cccs1` [ZINC24469052] had a negative logarithm of the Ki (pKi) in assay [1] of 4.68.

Turning to `O=c1c2ccccc2oc2ccc(S(=O)(=O)N=c3[nH]nn[nH]3)cc12` [GAJ], the pKi in assay [5] was 4.70.

Take `CC[C@H](C)NC(=O)c1ccccc1NC(=O)Cc1c(F)cccc1Cl` [ZINC15608616]: the negative logarithm of the Ki (pKi) in assay [1] was 3.83. The inhibition constant Ki in assay [2] is 150 µM.
